pKd: −log10 of the molar value.
molecular target: CRBN truncate (318-426) (Homo sapiens (Human), UniProt Q96SW2); assay: Measurement of molecular interactions using surface plasmon resonance (SPR), Biacore T200; format: binding; conditions: 25° C., immobilized CRBN truncate, upper limit of measurement 200 μM
How it was run: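 C-terminally Avi-tagged CRBN (318-426) captured on a streptavidin SA chip on a Biacore T200. Running buffer 10 mM HEPES pH 7.5, 150 mM NaCl, 1 mM TCEP, 0.005% Tween 20, 2% DMSO; 60 s contact, 120 s dissociation.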

Sequence of CRBN truncate (318-426) (Q96SW2 318-426): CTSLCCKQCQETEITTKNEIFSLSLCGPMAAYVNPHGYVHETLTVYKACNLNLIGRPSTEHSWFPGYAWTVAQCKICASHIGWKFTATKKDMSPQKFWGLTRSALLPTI

`Cc1sc2c(c1C)C(c1ccc(Cl)cc1)=N[C@@H](CC(=O)NCCCCCCCCN1CC3(CC(=O)N(C4CCC(=O)NC4=O)C3=O)C1)c1nnc(C)n1-2` (stereo partly drawn) [Example 309, 2-[(9S)-7-(4-chlorophenyl)-4,5,13-trimethyl-3-thia-1,8,11,12-tetraazatricyclo[8.3.0.02,6]trideca-2(6),4,7,10,12-pentaen-9-yl]-N-[8-[6-(2,6-dioxopiperidin-3-yl)-5,7-dioxo-2,6-diazaspiro[3.4]octan-2-yl]octyl]acetamide] was tested. Which pKd did it give?
Its pKd is ≤ 4.00.

With `Cc1sc2c(c1C)C(c1ccc(Cl)cc1)=N[C@@H](CC(=O)NCCCCCCCc1cn(C3CCCC(=O)NC3=O)nn1)c1nnc(C)n1-2` (stereo partly drawn) [Example 310, 2-[(9S)-7-(4-chlorophenyl)-4,5,13-trimethyl-3-thia-1,8,11,12-tetraazatricyclo[8.3.0.02,6]trideca-2(6),4,7,10,12-pentaen-9-yl]-N-[7-[1-(2,7-dioxoazepan-3-yl)triazol-4-yl]heptyl]acetamide] as the compound, how does the pKd read?
Its pKd is ≤ 4.00.

With `Cc1sc2c(c1C)C(c1ccc(Cl)cc1)=N[C@@H](CC(=O)NCCCCCCc1ccc(S(=O)(=O)N(C)C3CCCC(=O)NC3=O)cc1)c1nnc(C)n1-2` (stereo partly drawn) [Example 311, 2-[(9S)-7-(4-chlorophenyl)-4,5,13-trimethyl-3-thia-1,8,11,12-tetraazatricyclo[8.3.0.02,6]trideca-2(6),4,7,10,12-pentaen-9-yl]-N-[6-[4-[(2,7-dioxoazepan-3-yl)-methylsulfamoyl]phenyl]hexyl]acetamide] as the compound, how does the pKd read?
Its pKd is > 4.30.

How did the pKd turn out when `Cc1sc2c(c1C)C(c1ccc(Cl)cc1)=N[C@@H](CC(=O)NCCCCCCCNc1ccc3nc(N4CCCC(=O)NC4=O)sc3c1)c1nnc(C)n1-2` [Example 312, 2-[(9S)-7-(4-chlorophenyl)-4,5,13-trimethyl-3-thia-1,8,11,12-tetraazatricyclo[8.3.0.02,6]trideca-2(6),4,7,10,12-pentaen-9-yl]-N-[7-[[2-(2,4-dioxo-1,3-diazepan-1-yl)-1,3-benzothiazol-6-yl]amino]heptyl]acetamide] was run?
The pKd was > 4.30.

`Cc1sc2c(c1C)C(c1ccc(Cl)cc1)=N[C@@H](CC(=O)NCCCCCCCNc1ccc(N3CCC(N4CCCC(=O)NC4=O)C3=O)cc1)c1nnc(C)n1-2` (stereo partly drawn) [Example 313, 2-[(9S)-7-(4-chlorophenyl)-4,5,13-trimethyl-3-thia-1,8,11,12-tetraazatricyclo[8.3.0.02,6]trideca-2(6),4,7,10,12-pentaen-9-yl]-N-[7-[4-[3-(2,4-dioxo-1,3-diazepan-1-yl)-2-oxopyrrolidin-1-yl]anilino]heptyl]acetamide] was tested. Which pKd did it give?
The pKd was > 4.30.

With `Cc1sc2c(c1C)C(c1ccc(Cl)cc1)=N[C@@H](CC(=O)NCCCCCCCNc1ccc(N3CCC4(CCCC(=O)NC4=O)CC3=O)cc1)c1nnc(C)n1-2` (stereo partly drawn) [Example 314, 2-[(9S)-7-(4-chlorophenyl)-4,5,13-trimethyl-3-thia-1,8,11,12-tetraazatricyclo[8.3.0.02,6]trideca-2(6),4,7,10,12-pentaen-9-yl]-N-[7-[4-(4,7,9-trioxo-3,8-diazaspiro[5.6]dodecan-3-yl)anilino]heptyl]acetamide] as the compound, how does the pKd read?
Its pKd is > 4.30.

With `Cc1sc2c(c1C)C(c1ccc(Cl)cc1)=N[C@@H](CC(=O)NCCCNc1nccc(N3CC4(CC(=O)N(C5CCC(=O)NC5=O)C4=O)C3)n1)c1nnc(C)n1-2` (stereo partly drawn) [Example 315, 2-[(9S)-7-(4-chlorophenyl)-4,5,13-trimethyl-3-thia-1,8,11,12-tetraazatricyclo[8.3.0.02,6]trideca-2(6),4,7,10,12-pentaen-9-yl]-N-[3-[[4-[6-(2,6-dioxopiperidin-3-yl)-5,7-dioxo-2,6-diazaspiro[3.4]octan-2-yl]pyrimidin-2-yl]amino]propyl]acetamide] as the compound, how does the pKd read?
The pKd was > 4.30.

How did the pKd turn out when `Cc1sc2c(c1C)C(c1ccc(Cl)cc1)=N[C@@H](CC(=O)NCCCCCCc1ccc(-c3cn(C4CCCC(=O)NC4=O)nn3)cc1)c1nnc(C)n1-2` (stereo partly drawn) [Example 316, 2-[(9S)-7-(4-chlorophenyl)-4,5,13-trimethyl-3-thia-1,8,11,12-tetraazatricyclo[8.3.0.02,6]trideca-2(6),4,7,10,12-pentaen-9-yl]-N-[6-[4-[1-(2,7-dioxoazepan-3-yl)triazol-4-yl]phenyl]hexyl]acetamide] was run?
The pKd was > 4.30.

How did the pKd turn out when `Cc1sc2c(c1C)C(c1ccc(Cl)cc1)=N[C@@H](CC(=O)NCCc1ccc(S(=O)(=O)N3CC4(CC(=O)N(C5CCC(=O)NC5=O)C4=O)C3)cc1)c1nnc(C)n1-2` (stereo partly drawn) [Example 317, 2-[(9S)-7-(4-chlorophenyl)-4,5,13-trimethyl-3-thia-1,8,11,12-tetraazatricyclo[8.3.0.02,6]trideca-2(6),4,7,10,12-pentaen-9-yl]-N-[2-[4-[[6-(2,6-dioxopiperidin-3-yl)-5,7-dioxo-2,6-diazaspiro[3.4]octan-2-yl]sulfonyl]phenyl]ethyl]acetamide] was run?
The pKd was > 4.30.

How did the pKd turn out when `Cc1sc2c(c1C)C(c1ccc(Cl)cc1)=N[C@@H](CC(=O)NCCCCCCCCn1ccc3c(N4CC5(CC(=O)N(C6CCC(=O)NC6=O)C5=O)C4)ncnc31)c1nnc(C)n1-2` (stereo partly drawn) [Example 318, 2-[(9S)-7-(4-chlorophenyl)-4,5,13-trimethyl-3-thia-1,8,11,12-tetraazatricyclo[8.3.0.02,6]trideca-2(6),4,7,10,12-pentaen-9-yl]-N-[8-[4-[6-(2,6-dioxopiperidin-3-yl)-5,7-dioxo-2,6-diazaspiro[3.4]octan-2-yl]pyrrolo[2,3-d]pyrimidin-7-yl]octyl]acetamide] was run?
The pKd was > 4.30.

`Cc1sc2c(c1C)C(c1ccc(Cl)cc1)=N[C@@H](CC(=O)NCCCCCCCCn1ccc3c(N4CCC5(CCCC(=O)NC5=O)C4)ncnc31)c1nnc(C)n1-2` (stereo partly drawn) [Example 319, 2-[(9S)-7-(4-chlorophenyl)-4,5,13-trimethyl-3-thia-1,8,11,12-tetraazatricyclo[8.3.0.02,6]trideca-2(6),4,7,10,12-pentaen-9-yl]-N-[8-[4-(6,8-dioxo-2,7-diazaspiro[4.6]undecan-2-yl)pyrrolo[2,3-d]pyrimidin-7-yl]octyl]acetamide] was tested. Which pKd did it give?
The pKd was > 4.30.

How did the pKd turn out when `Cc1sc2c(c1C)C(c1ccc(Cl)cc1)=N[C@@H](CC(=O)NCCCCCCCCOc1ccc(C#N)c(N3CCC4(CCCC(=O)NC4=O)C3)c1)c1nnc(C)n1-2` (stereo partly drawn) [Example 320, 2-[(9S)-7-(4-chlorophenyl)-4,5,13-trimethyl-3-thia-1,8,11,12-tetraazatricyclo[8.3.0.02,6]trideca-2(6),4,7,10,12-pentaen-9-yl]-N-[8-[4-cyano-3-(6,8-dioxo-2,7-diazaspiro[4.6]undecan-2-yl)phenoxy]octyl]acetamide] was run?
The pKd was > 4.30.

How did the pKd turn out when `Cc1sc2c(c1C)C(c1ccc(Cl)cc1)=N[C@@H](CC(=O)NCCCCCOc1ccc3nc(N4CC5(CC(=O)N(C6CCC(=O)NC6=O)C5=O)C4)sc3c1)c1nnc(C)n1-2` (stereo partly drawn) [Example 321, 2-[(9S)-7-(4-chlorophenyl)-4,5,13-trimethyl-3-thia-1,8,11,12-tetraazatricyclo[8.3.0.02,6]trideca-2(6),4,7,10,12-pentaen-9-yl]-N-[5-[[2-[6-(2,6-dioxopiperidin-3-yl)-5,7-dioxo-2,6-diazaspiro[3.4]octan-2-yl]-1,3-benzothiazol-6-yl]oxy]pentyl]acetamide] was run?
Its pKd is > 4.30.

`Cc1sc2c(c1C)C(c1ccc(Cl)cc1)=N[C@@H](CC(=O)NCCCCCOc1ccc3nc(N4CCC5(CCCC(=O)NC5=O)C4)sc3c1)c1nnc(C)n1-2` (stereo partly drawn) [Example 322, 2-[(9S)-7-(4-chlorophenyl)-4,5,13-trimethyl-3-thia-1,8,11,12-tetraazatricyclo[8.3.0.02,6]trideca-2(6),4,7,10,12-pentaen-9-yl]-N-[5-[[2-(6,8-dioxo-2,7-diazaspiro[4.6]undecan-2-yl)-1,3-benzothiazol-6-yl]oxy]pentyl]acetamide] was tested. Which pKd did it give?
The pKd was > 4.30.

`Cc1sc2c(c1C)C(c1ccc(Cl)cc1)=N[C@@H](CC(=O)NCCCCCCc1ccc(C(=O)N3CCC4(CCCC(=O)NC4=O)C3)cc1Cl)c1nnc(C)n1-2` (stereo partly drawn) [Example 323, N-[6-[2-chloro-4-(6,8-dioxo-2,7-diazaspiro[4.6]undecane-2-carbonyl)phenyl]hexyl]-2-[(9S)-7-(4-chlorophenyl)-4,5,13-trimethyl-3-thia-1,8,11,12-tetraazatricyclo[8.3.0.02,6]trideca-2(6),4,7,10,12-pentaen-9-yl]acetamide] was tested. Which pKd did it give?
The pKd was > 4.30.

With `Cc1sc2c(c1C)C(c1ccc(Cl)cc1)=N[C@@H](CC(=O)NCCCCCCc1cccc3c(C(=O)N4CCC5(CCCC(=O)NC5=O)C4)cccc13)c1nnc(C)n1-2` (stereo partly drawn) [Example 324, 2-[(9S)-7-(4-chlorophenyl)-4,5,13-trimethyl-3-thia-1,8,11,12-tetraazatricyclo[8.3.0.02,6]trideca-2(6),4,7,10,12-pentaen-9-yl]-N-[6-[5-(6,8-dioxo-2,7-diazaspiro[4.6]undecane-2-carbonyl)naphthalen-1-yl]hexyl]acetamide] as the compound, how does the pKd read?
The pKd was > 4.30.

`Cc1sc2c(c1C)C(c1ccc(Cl)cc1)=N[C@@H](CC(=O)NCCCCCCn1ccc3c(C(=O)N4CCC5(CCCC(=O)NC5=O)CC4)cccc31)c1nnc(C)n1-2` [Example 326, 2-[(9S)-7-(4-chlorophenyl)-4,5,13-trimethyl-3-thia-1,8,11,12-tetraazatricyclo[8.3.0.02,6]trideca-2(6),4,7,10,12-pentaen-9-yl]-N-[6-[4-(7,9-dioxo-3,8-diazaspiro[5.6]undecane-3-carbonyl)indol-1-yl]hexyl]acetamide] was tested. Which pKd did it give?
Its pKd is > 4.30.

With `Cc1sc2c(c1C)C(c1ccc(Cl)cc1)=N[C@@H](CC(=O)NCCCCCCc1ccc(C(=O)N3CCN(C4CCCC(=O)NC4=O)C(=O)C3)cc1Cl)c1nnc(C)n1-2` (stereo partly drawn) [Example 327, N-[6-[2-chloro-4-[4-(2,7-dioxoazepan-3-yl)-3-oxopiperazine-1-carbonyl]phenyl]hexyl]-2-[(9S)-7-(4-chlorophenyl)-4,5,13-trimethyl-3-thia-1,8,11,12-tetraazatricyclo[8.3.0.02,6]trideca-2(6),4,7,10,12-pentaen-9-yl]acetamide] as the compound, how does the pKd read?
The pKd was > 4.30.
